Legend:
Assay type in all cases: cell-based, HIV-1
HIV strain Y181C = experiment: Cellular anti-HIV assay in MT4 LTR-EGFP cells, mutant Y181C; details: Human immunodeficiency virus 1, read-out: Y181C pEC50 (converted)
Procedure: (§1) Because of the increasing emergence of drug resistant HIV strains, the present compounds were tested for their potency against clinically isolated HIV strains harbouring several mutations. These mutations are associated with resistance to reverse transcriptase inhibitors and result in viruses that show various degrees of phenotypic cross-resistance to the currently commercially available drugs such as for instance AZT and delavirdine.
(§2) The antiviral activity of the compound of the present invention has been evaluated in the presence of wild type HIV and HIV mutants bearing mutations at the reverse transcriptase gene. The activity of the compounds is evaluated using a cellular assay which was performed according to the following procedure.
(§3) The human T-cell line MT4 is engineered with Green Fluorescent Protein (GFP) and an HIV-specific promoter, HIV-1 long terminal repeat (LTR). This cell line is designated MT4 LTR-EGFP, and can be used for the in vitro evaluation of anti-HIV activity of investigational compounds. In HIV-1 infected cells, the Tat protein is produced which upregulates the LTR promotor and finally leads to stimulation of the GFP reporter production, allowing to measure ongoing HIV-infection fluorometrically. Analogously, MT4 cells are engineered with GFP and the constitutional cytomegalovirus (CMV) promotor. This cell line is designated MT4 CMV-EGFP, and can be used for the in vitro evaluation of cytotoxicity of investigational compounds. In this cell line, GFP levels are comparably to those of infected MT4 LTR-EGFP cells. Cytotoxic investigational compounds reduce GFP levels of mock-infected MT4 CMV-EGFP cells.
(§4) Effective concentration values such as 50% effective concentration (EC50) can be determined and are usually expressed in μM. An EC50 value is defined as the concentration of test compound that reduces the fluorescence of HIV-infected cells by 50%. The 50% cytotoxic concentration (CC50 in μM) is defined as the concentration of test compound that reduces fluorescence of the mock-infected cells by 50%. The ratio of CC50 to EC50 is defined as the selectivity index (SI) and is an indication of the selectivity of the anti-HIV activity of the inhibitor. The ultimate monitoring of HIV-1 infection and cytotoxicity is done using a scanning microscope. Image analysis allows very sensitive detection of viral infection. Measurements are done before cell necrosis, which usually takes place about five days after infection, in particular measurements are performed three days after infection.
(§5) The columns IIIB, L100I, etc. in the table list the pEC50 values against various strains IIIB, L100I, etc.

HIV strain L100I + K103N = experiment: Cellular anti-HIV assay in MT4 LTR-EGFP cells, mutant L100I + K103N; details: Human immunodeficiency virus 1, 72 h, read-out: L100I + K103N pEC50 (converted)
Procedure: as §1, §2, §3, §4, §5

HIV strain Y188L = experiment: Cellular anti-HIV assay in MT4 LTR-EGFP cells, mutant Y188L; details: Human immunodeficiency virus 1, read-out: Y188L pEC50 (converted)
Procedure: as §1, §2, §3, §4, §5

HIV strain K103N + Y181C = experiment: Cellular anti-HIV assay in MT4 LTR-EGFP cells, mutant K103N + Y181C; details: Human immunodeficiency virus 1, 72 h, read-out: K103N + Y181C pEC50 (converted)
Procedure: as §1, §2, §3, §4, §5

HIV strain K103N = experiment: Cellular anti-HIV assay in MT4 LTR-EGFP cells, mutant K103N; details: Human immunodeficiency virus 1, read-out: K103N pEC50 (converted)
Procedure: as §1, §2, §3, §4, §5

HIV strain L100I = experiment: Cellular anti-HIV assay in MT4 LTR-EGFP cells, mutant L100I; details: Human immunodeficiency virus 1, read-out: L100I pEC50 (converted)
Procedure: as §1, §2, §3, §4, §5

HIV strain MDR = experiment: Cellular anti-HIV assay in MT4 LTR-EGFP cells, MDR strain; details: Human immunodeficiency virus 1, read-out: MDR pEC50 (converted)
Procedure: as §1, §2, §3, §4, §5
MDR refers to a strain that contains mutations L100I, K103N, Y181C, E138G, V1791, L2214F, V278V/I and A327A/V in HIV reverse transcriptase.

[1] = system: HIV strain IIIB (wild type); experiment: Cellular anti-HIV assay in MT4 LTR-EGFP cells, strain IIIB (wild type); selectivity index versus cytotoxicity in mock-infected MT4 CMV-EGFP cells; details: for EC50: Human immunodeficiency virus 1, 72 h, wild type HIV strain IIIB, MT4 LTR-EGFP cells, fluorescence, three days after infection, read-out: IIIB pEC50 (converted); for IIIB pSi: selectivity index = ratio of CC50 (mock-infected MT4 CMV-EGFP cells) to EC50 (IIIB), given as p value
Procedure: as §2, §3, §4, §5
Strain IIIB is wild type HIV strain

Row | SMILES | EC50 (HIV strain Y181C) | EC50 (HIV strain L100I + K103N) | EC50 (HIV strain Y188L) | EC50 (HIV strain K103N + Y181C) | EC50 (HIV strain K103N) | EC50 (HIV strain L100I) | EC50 (HIV strain MDR) | EC50 [1] | IIIB pSi [1]
1 | COCCCNC(=O)c1cnc(Nc2ccc(C#N)cc2)nc1Nc1c(C)cc(/C=C/C#N)cc1C [Compound 9] | 12.6 nM | 25.1 nM | 15.8 nM | 20 nM | 3.16 nM | 5.01 nM | 1000 nM | 2.51 nM | >4.00
2 | Cc1cc(/C=C/C#N)cc(C)c1Nc1nc(Nc2ccc(C#N)cc2)ncc1C(=O)NC1CC1 [Compound 37] | 12.6 nM | 20 nM | 12.6 nM | 7.94 nM | 1.58 nM | 5.01 nM | 1000 nM | 2.51 nM | 3.60
3 | Cc1cc(/C=C/C#N)cc(C)c1Nc1nc(Nc2ccc(C#N)cc2)ncc1C(=O)NCc1ccc(F)cc1 [Compound 26] | 50.1 nM | 316 nM | 79.4 nM | 39.8 nM | 12.6 nM | 25.1 nM | 5010 nM | 12.6 nM | 3.00
4 | COCCNC(=O)c1cnc(Nc2ccc(C#N)cc2)nc1Oc1c(C)cc(/C=C/C#N)cc1C [Compound 60] | 31.6 nM | 316 nM | 158 nM | 63.1 nM | 12.6 nM | 79.4 nM | 10000 nM | 3.16 nM | 3.50
5 | Cc1cc(/C=C/C#N)cc(C)c1Nc1nc(Nc2ccc(C#N)cc2)ncc1C(=O)NCC#N [Compound 21] | 15.8 nM | 15.8 nM | 15.8 nM | 15.8 nM | 5.01 nM | 3.98 nM | 501 nM | 15.8 nM | 2.80
6 | Cc1cc(/C=C/C#N)cc(C)c1Nc1nc(Nc2ccc(C#N)cc2)ncc1C(=O)NCCc1ccccn1 [Compound 44] | 10 nM | 31.6 nM | 7.94 nM | 10 nM | 2.51 nM | 12.6 nM | 1260 nM | 2 nM | >4.10
7 | Cc1cc(/C=C/C#N)cc(C)c1Nc1nc(Nc2ccc(C#N)cc2)ncc1C(=O)N(C)CCO [Compound 7] | 20 nM | 50.1 nM | 50.1 nM | 63.1 nM | 2 nM | 7.94 nM | 2000 nM | 1.58 nM | 4.00
8 | Cc1cc(/C=C/C#N)cc(C)c1Nc1nc(Nc2ccc(C#N)cc2)ncc1C(=O)NCc1ccc(Br)cc1 [Compound 36] | 126 nM | 794 nM | 398 nM | 126 nM | 25.1 nM | 126 nM | 10000 nM | 25.1 nM | >3.00
9 | Cc1cc(/C=C/C#N)cc(C)c1Nc1nc(Nc2ccc(C#N)cc2)ncc1C(=O)NCCc1ccc(S(N)(=O)=O)cc1 [Compound 47] | 50.1 nM | 126 nM | 100 nM | 126 nM | 25.1 nM | 63.1 nM | 501 nM | 20 nM | 3.10
10 | CCOC(=O)CCNC(=O)c1cnc(Nc2ccc(C#N)cc2)nc1Nc1c(C)cc(/C=C/C#N)cc1C [Compound 14] | 12.6 nM | 15.8 nM | 12.6 nM | 10 nM | 2.51 nM | 2.51 nM | 631 nM | 2.51 nM | >4.00
11 | Cc1cc(/C=C/C#N)cc(C)c1Nc1nc(Nc2ccc(C#N)cc2)ncc1C(=O)NCC1COC(C)(C)O1 (stereo not drawn) [Compound 10] | 15.8 nM | 39.8 nM | 20 nM | 63.1 nM | 3.16 nM | 3.98 nM | 501 nM | 2.51 nM | >4.00
12 | Cc1cc(/C=C/C#N)cc(C)c1Nc1nc(Nc2ccc(C#N)cc2)ncc1C(=O)Nc1cccc(Cl)c1 [Compound 16] | 200 nM | 501 nM | 501 nM | 316 nM | 3.98 nM | 79.4 nM | 7940 nM | 25.1 nM | 2.60
13 | Cc1cc(/C=C/C#N)cc(C)c1Nc1nc(Nc2ccc(C#N)cc2)ncc1C(=O)NCc1cccc(Cl)c1 [Compound 25] | 79.4 nM | 39.8 nM | 50.1 nM | 31.6 nM | 15.8 nM | 25.1 nM | 10000 nM | 12.6 nM | 3.00
14 | Cc1cc(/C=C/C#N)cc(C)c1Nc1nc(Nc2ccc(C#N)cc2)ncc1C(=O)NCCN1CCCC1 [Compound 51] | 63.1 nM | 126 nM | 100 nM | 63.1 nM | 6.31 nM | 79.4 nM | 2510 nM | 3.98 nM | 3.00
15 | CCOC(=O)CN(C)C(=O)c1cnc(Nc2ccc(C#N)cc2)nc1Nc1c(C)cc(/C=C/C#N)cc1C [Compound 11] | 39.8 nM | 50.1 nM | 25.1 nM | 79.4 nM | 3.98 nM | 7.94 nM | 1580 nM | 2 nM | 3.40
16 | CC(=O)NCCNC(=O)c1cnc(Nc2ccc(C#N)cc2)nc1Nc1c(C)cc(/C=C/C#N)cc1C [Compound 33] | 50.1 nM | 15.8 nM | 63.1 nM | 12.6 nM | 15.8 nM | 15.8 nM | 398 nM | 15.8 nM | >3.20
17 | Cc1cc(/C=C/C#N)cc(C)c1Oc1nc(Nc2ccc(C#N)cc2)ncc1C(=O)NCC#N [Compound 61] | 20 nM | 50.1 nM | 100 nM | 25.1 nM | 3.98 nM | 20 nM | 3160 nM | 3.16 nM | >3.90
18 | Cc1cc(/C=C/C#N)cc(C)c1Nc1nc(Nc2ccc(C#N)cc2)ncc1C(=O)NCCc1cccs1 [Compound 48] | 126 nM | 501 nM | 316 nM | 200 nM | 20 nM | 126 nM | 10000 nM | 20 nM | 3.10
19 | CONC(=O)c1cnc(Nc2ccc(C#N)cc2)nc1Oc1c(C)cc(/C=C/C#N)cc1C [Compound 62] | 20 nM | 39.8 nM | 39.8 nM | 31.6 nM | 2.51 nM | 5.01 nM | 3160 nM | 1.58 nM | 4.00
20 | Cc1cc(/C=C/C#N)cc(C)c1Nc1nc(Nc2ccc(C#N)cc2)ncc1C(=O)NCCN(C)C [Compound 22] | 15.8 nM | 100 nM | 50.1 nM | 20 nM | 0.631 nM | 20 nM | 2000 nM | 0.794 nM | 3.90
21 | Cc1cc(/C=C/C#N)cc(C)c1Nc1nc(Nc2ccc(C#N)cc2)ncc1C(=O)NCCCN1CCCC1 [Compound 38] | 20 nM | 63.1 nM | 25.1 nM | 15.8 nM | 1 nM | 25.1 nM | 2000 nM | 0.794 nM | 3.70

— patent US8933089B2, “HIV inhibiting 5-amido substituted pyrimidines” (Janssen R & D Ireland, priority 2006, dated 2015)
